Assay results as given in US20250230193A1, “CYCLIC COMPOUND HAVING SELECTIVE KRAS INHIBITORY EFFECT ON HRAS AND NRAS” (CHUGAI SEIYAKU KABUSHIKI KAISHA, priority 2022, published 2025).
Read-outs that look alike come from different tables or passages of the source. *1 amine or outer side, *2 acyl side, *3 side chain or, on linkers, in order; H or OH if unused. Where a SMILES comes first, the peptide text is derived from it. Bridges are numbered along the chain shown (N, C = ends). [ ]: non-standard residue; d: D form. The star is where a group is joined. hPhe(3,5-F2-4-CF3) = N[C@@H](CCc1cc(F)c(C(F)(F)F)c(F)c1)C(=O)O; NPrPhe(4-CF3) = CCCN[C@@H](Cc1ccc(C(F)(F)F)cc1)C(=O)O; X1 = CN([C@@H](CCCC=[*:3])C(=O)[*:2])[*:1]; X2 = C[C@@](CC=[*:3])(N[*:1])C(=O)[*:2]; NMeGly(cPent) = CN[C@H](C(=O)O)C1CCCC1; Hyp = O=C(O)[C@@H]1C[C@@H](O)CN1; NMeD = CN[C@@H](CC(=O)O)C(=O)O; Morpholide = C1CN(*)CCO1; Sar = CNCC(=O)O

Legend:
[1] = system: human lung cancer strain NCI-H441
[2] = target: GDP-bound KRAS wild-type protein (Homo sapiens, UniProt P01116); test: Binding to KRAS by surface plasmon resonance (SPR), Single Cycle Kinetics
[3] = target: GDP-bound HRAS wild-type protein (Homo sapiens, UniProt P01112); test: Binding to HRAS by surface plasmon resonance (SPR), Single Cycle Kinetics; conditions: SPR; for HRAS/KRAS (ratio of KD value with respect to HRAS to KD value with respect to KRAS): GDP-bound HRAS wild-type vs GDP-bound KRAS wild-type; for HRAS/KRAS (ratio of KD value for GDP-bound HRAS wild-type protein to KD value for KRAS): KD ratio class
[4] = target: GDP-bound NRAS wild-type protein (Homo sapiens, UniProt P01111); test: Binding to NRAS by surface plasmon resonance (SPR), Single Cycle Kinetics; conditions: SPR; for NRAS/KRAS (ratio of KD value with respect to NRAS to KD value with respect to KRAS): GDP-bound NRAS wild-type vs GDP-bound KRAS wild-type; for NRAS/KRAS (ratio of KD value for GDP-bound NRAS wild-type protein to KD value for KRAS): KD ratio class
[5] = GDP-bound KRAS wild-type protein, SPR Single Cycle Kinetics, 1:1 binding model
[6] = SPR, Single Cycle Kinetics, GDP-bound KRAS wild-type protein
[7] = read-out: NCI-H441 IC50, NCI-H441 cells, 4 days, CellTiter-Glo

Chain of GDP-bound HRAS wild-type protein (P01112 whole entry): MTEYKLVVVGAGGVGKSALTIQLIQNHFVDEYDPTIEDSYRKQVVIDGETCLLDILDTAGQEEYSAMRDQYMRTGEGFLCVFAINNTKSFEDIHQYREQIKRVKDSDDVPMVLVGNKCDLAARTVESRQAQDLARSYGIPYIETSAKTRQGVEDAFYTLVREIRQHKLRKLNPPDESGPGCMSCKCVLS
Chain of GDP-bound NRAS wild-type protein (P01111 whole entry): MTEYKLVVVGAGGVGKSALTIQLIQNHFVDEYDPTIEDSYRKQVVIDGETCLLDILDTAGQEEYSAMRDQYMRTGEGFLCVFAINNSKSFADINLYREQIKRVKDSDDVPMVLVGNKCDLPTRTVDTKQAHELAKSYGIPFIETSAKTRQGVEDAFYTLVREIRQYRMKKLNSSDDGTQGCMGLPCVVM

SMILES	IC50 [1]	Kd [2, 5]	Kd [2, 6]	HRAS/KRAS (ratio of KD value with respect to GDP-bound HRAS wild-type protein to KD value with respect to KRAS) [3]	NRAS/KRAS (ratio of KD value with respect to GDP-bound NRAS wild-type protein to KD value with respect to KRAS) [4]	HRAS/KRAS (ratio of KD value with respect to HRAS to KD value with respect to KRAS) [3]	NRAS/KRAS (ratio of KD value with respect to NRAS to KD value with respect to KRAS) [4]	other results
CC[C@H](C)[C@@H]1NC(=O)[C@H](CC(C)C)N(C)C(=O)C[C@@H](C(=O)N(C)C)N(C)C(=O)[C@H](C2CCCC2)N(C)C(=O)C2(CCCC2)NC(=O)C2CCCN2C(=O)[C@H](CCc2ccc(C(F)(F)F)c(Cl)c2)NC(=O)CN(C)C(=O)[C@H](Cc2ccc(C(F)(F)F)cc2)N2CC/C=C(/C)C[C@@H](C2=O)N(C)C(=O)CN(C)C1=O (stereo partly shown) [PP0617]	159 nM	6.9 nM		B (a compound having 3 or more and less than 10 is denoted as B)	B (a compound having 3 or more and less than 10 is denoted as B)			
CC[C@H](C)C1NC(=O)[C@H](CC(C)C)N(C)C(=O)C[C@@H](C(=O)N(C)C)N(C)C(=O)[C@H](C2CCCC2)N(C)C(=O)C2(CCCC2)NC(=O)C2CCCN2C(=O)[C@@H](CCc2ccc(C(F)(F)F)c(Cl)c2)NC(=O)CN(C)C(=O)[C@@H](Cc2ccc(C(F)(F)F)cc2)N2CC/C=C\CCN(CC2=O)C(=O)CN(C)C1=O (stereo partly shown) [PP0619]	70.7 nM	3.7 nM		C (A compound having a KD ratio of 0.1 or more and less than 3 is denoted as C)	C (A compound having a KD ratio of 0.1 or more and less than 3 is denoted as C)			
CC[C@H](C)[C@@H]1NC(=O)[C@H](CC(C)C)N(C)C(=O)C[C@@H](C(=O)N(C)C)N(C)C(=O)[C@H](C2CCCC2)N(C)C(=O)C2(CCCC2)NC(=O)[C@@H]2CCCN2C(=O)[C@H](CCc2ccc(C(F)(F)F)c(Cl)c2)NC(=O)CN(C)C(=O)[C@H](Cc2ccc(C(F)(F)F)cc2)N2CC=C(C)C[C@@H](C2=O)N(C)C(=O)CN(C)C1=O [PP0621]	83.6 nM	2.4 nM		C (A compound having a KD ratio of 0.1 or more and less than 3 is denoted as C)	C (A compound having a KD ratio of 0.1 or more and less than 3 is denoted as C)			
CC[C@H](C)[C@@H]1NC(=O)[C@H](CC(C)C)N(C)C(=O)C[C@@H](C(=O)N(C)C)N(C)C(=O)[C@H](C2CCCC2)N(C)C(=O)C2(CCCC2)NC(=O)[C@@H]2CCCN2C(=O)[C@H](CCc2ccc(C(F)(F)F)c(Cl)c2)NC(=O)CN(C)C(=O)[C@H](Cc2ccc(C(F)(F)F)cc2)N2C/C=C\COC[C@@H](C2=O)N(C)C(=O)CN(C)C1=O [PP0626]	158 nM	7.1 nM		C (A compound having a KD ratio of 0.1 or more and less than 3 is denoted as C)	C (A compound having a KD ratio of 0.1 or more and less than 3 is denoted as C)			
CCCN1C(=O)CN(C)C(=O)CN(C)C(=O)[C@H]([C@@H](C)CC)NC(=O)[C@@H]2CCC/C=C\C[C@](C)(NC(=O)[C@@H]3C[C@@H](OCC)CN3C(=O)[C@H](CCc3cc(F)c(C(F)(F)F)c(F)c3)NC(=O)CN(C)C(=O)[C@@H]1Cc1ccc(C(F)(F)F)cc1)C(=O)N(C)[C@@H](C1CCCC1)C(=O)N(C)[C@H](C(=O)N1CCOCC1)CC(=O)N2C [PP0901] ([X1]I[Sar][Sar][NPrPhe(4-CF3)][Sar][hPhe(3,5-F2-4-CF3)][Hyp](Et)[X2][NMeGly(cPent)][NMeD]-Morpholide; staple (Z) 1-9; lactam N-11)	332 nM		3 nM			B (a compound having 3 or more and less than 10 is denoted as B)	B (a compound having 3 or more and less than 10 is denoted as B)	
CCO[C@@H]1C[C@H]2C(=O)NC3(CCC3)C(=O)N(C)[C@@H](C3CCCC3)C(=O)N(CC)[C@H](C(=O)N(C)C)CC(=O)N(C)[C@@H](CC)C(=O)N[C@@H]([C@@H](C)CC)C(=O)N(C)CC(=O)N(C)[C@H]3CCCCCN(C3=O)[C@@H](Cc3ccc(F)cc3)C(=O)N(C)CC(=O)N[C@@H](CCc3cc(F)c(C(F)(F)F)c(F)c3)C(=O)N2C1 [PP0904]	58.7 nM		0.8 nM			B (a compound having 3 or more and less than 10 is denoted as B)	B (a compound having 3 or more and less than 10 is denoted as B)	
CCO[C@@H]1C[C@H]2C(=O)NC3(CCC3)C(=O)N(C)[C@@H](C3CCCC3)C(=O)N(CC)[C@H](C(=O)N3CCOCC3)CC(=O)N(C)[C@@H](CC)C(=O)N[C@@H]([C@@H](C)CC)C(=O)N(C)CC(=O)N(C)[C@H]3CCCCCN(C3=O)[C@@H](Cc3ccc(F)cc3)C(=O)N(C)CC(=O)N[C@@H](CCc3cc(F)c(C(F)(F)F)c(F)c3)C(=O)N2C1 [PP0905]	92 nM		0.79 nM			B (a compound having 3 or more and less than 10 is denoted as B)	B (a compound having 3 or more and less than 10 is denoted as B)	
CCO[C@@H]1C[C@H]2C(=O)NC3(CCC3)C(=O)N(C)[C@@H](C3CCCC3)C(=O)N(C)[C@H](C(=O)N(C)C)CC(=O)N(C)[C@@H](CC3CCCC3)C(=O)N[C@@H]([C@@H](C)CC)C(=O)N(C)CC(=O)N(C)[C@H]3C/C=C\CCN(C3=O)[C@@H](Cc3ccc(C(F)(F)F)cc3)C(=O)N(C)CC(=O)N[C@@H](CCc3ccc(C(F)(F)F)c(OC)c3)C(=O)N2C1 [PP1248]								IC50 [1, 7]: 7.3 nM; Kd [2]: 0.069 nM
CCC[C@H]1C(=O)N[C@@H]([C@@H](C)CC)C(=O)N(C2CC2)CC(=O)N(C)[C@H]2C/C=C\CCN(C2=O)[C@@H](Cc2ccc(C)cc2)C(=O)N(C)CC(=O)N[C@@H](CCc2cc(F)c(C(F)(F)F)c(F)c2)C(=O)N2C[C@H](OCC)C[C@H]2C(=O)N(C)C2(CCC2)C(=O)N(C)[C@@H](C2CCCC2)C(=O)N(C)[C@H](C(=O)N2CCCCC2)CC(=O)N1C [PP3111, (2S,8S,12R,14S,20S,23S,27S,30S,36S,38Z)-20-cyclopentyl-32-cyclopropyl-8-[2-[3,5-difluoro-4-(trifluoromethyl)phenyl]ethyl]-12-ethoxy-4,16,19,22,26,35-hexamethyl-30-[(1S)-1-methylpropyl]-23-(piperidine-1-carbonyl)-27-propyl-2-(p-tolylmethyl)spiro[1,4,7,10,16,19,22,26,29,32,35-undecazatricyclo[34.5.1.0^10,14]dotetracont-38-ene-17,1′-cyclobutane]-3,6,9,15,18,21,25,28,31,34,42-undecone]								Kd ([2]; SPR Single Cycle Kinetics, GDP-bound KRAS wild-type protein, 1:1 binding model): 4.8 nM; HRAS/KRAS (ratio of KD value with respect to GDP-bound HRAS wild-type protein to KD value with respect to KRAS) ([3]; GDP-bound wild-type proteins): A (a compound having 10 or more and less than 20 is denoted as A); NRAS/KRAS (ratio of KD value with respect to GDP-bound NRAS wild-type protein to KD value with respect to KRAS) ([4]; GDP-bound wild-type proteins): A (a compound having 10 or more and less than 20 is denoted as A)

Now from value to molecule, other results behind:

IC50 [1]	Kd [2, 5]	Kd [2, 6]	SMILES	HRAS/KRAS (ratio of KD value with respect to GDP-bound HRAS wild-type protein to KD value with respect to KRAS) [3]	NRAS/KRAS (ratio of KD value with respect to GDP-bound NRAS wild-type protein to KD value with respect to KRAS) [4]	HRAS/KRAS (ratio of KD value with respect to HRAS to KD value with respect to KRAS) [3]	NRAS/KRAS (ratio of KD value with respect to NRAS to KD value with respect to KRAS) [4]	other results
36.9 nM		0.29 nM	CCO[C@@H]1C[C@H]2C(=O)NC3(CCC3)C(=O)N(C)[C@@H](C3CCCC3)C(=O)N(C)[C@H](C(=O)N(C)C)CC(=O)N(C)[C@@H](CC)C(=O)N[C@@H]([C@@H](C)CC)C(=O)N(C)CC(=O)N(C)[C@H]3CCCCCN(C3=O)[C@@H](Cc3ccc(F)cc3F)C(=O)N(C)CC(=O)N[C@@H](CCc3cc(F)c(C(F)(F)F)c(F)c3)C(=O)N2C1 [PP0906]			B (a compound having 3 or more and less than 10 is denoted as B)	B (a compound having 3 or more and less than 10 is denoted as B)	
35.9 nM		0.34 nM	CCO[C@@H]1C[C@H]2C(=O)NC3(CCC3)C(=O)N(C)[C@@H](C3CCCC3)C(=O)N(C)[C@H](C(=O)N3CCOCC3)CC(=O)N(C)[C@@H](CC(C)C)C(=O)N[C@@H]([C@@H](C)CC)C(=O)N(C)CC(=O)N(C)[C@H]3CCCCCN(C3=O)[C@@H](Cc3ccc(F)cc3F)C(=O)N(C)CC(=O)N[C@@H](CCc3cc(F)c(C(F)(F)F)c(F)c3)C(=O)N2C1 [PP0916]			B (a compound having 3 or more and less than 10 is denoted as B)	B (a compound having 3 or more and less than 10 is denoted as B)	
		0.076 nM	CCCCCC[C@H]1C(=O)N[C@@H]([C@@H](C)CC)C(=O)N(C)CC(=O)N(C)[C@H]2C/C=C\CCN(C2=O)[C@@H](Cc2ccc(C(F)(F)F)cc2)C(=O)N(C)CC(=O)N[C@@H](CCc2cc(F)c(C(F)(F)F)c(F)c2)C(=O)N2C[C@H](OCC)C[C@H]2C(=O)NC2(CCC2)C(=O)N(C)[C@@H](C2CCCC2)C(=O)N(C)[C@H](C(=O)N(C)C)CC(=O)N1C [PP1242]					IC50 [1, 7]: 12.8 nM; HRAS/KRAS (ratio of KD value for GDP-bound HRAS wild-type protein to KD value for KRAS) [3]: A (a compound having 10 or more and less than 20 is denoted as A); NRAS/KRAS (ratio of KD value for GDP-bound NRAS wild-type protein to KD value for KRAS) [4]: A (a compound having 10 or more and less than 20 is denoted as A)
		0.06 nM	CCO[C@@H]1C[C@H]2C(=O)NC3(CCC3)C(=O)N(C)[C@@H](C3CCCC3)C(=O)N(C)[C@H](C(=O)N(C)C)CC(=O)N(C)[C@@H](CC(C)C)C(=O)N[C@@H]([C@@H](C)CC)C(=O)N(C)CC(=O)N(C)[C@H]3C/C=C\CCN(C3=O)[C@@H](Cc3ccc(C(F)(F)F)cc3)C(=O)N(C)CC(=O)N[C@@H](CCc3ccc(C(F)(F)F)c(OC)c3)C(=O)N2C1 [PP1245]					IC50 [1, 7]: 3.7 nM; HRAS/KRAS (ratio of KD value for GDP-bound HRAS wild-type protein to KD value for KRAS) [3]: B (a compound having 3 or more and less than 10 is denoted as B); NRAS/KRAS (ratio of KD value for GDP-bound NRAS wild-type protein to KD value for KRAS) [4]: A (a compound having 10 or more and less than 20 is denoted as A)
